Patent US20060035927A1, “Calcilytic compounds” (SmithKline Beecham Corporation, priority 1999, published 2006)
Counter-ions that a name gives are not always drawn.

Legend:
osteopenic ovx rats = test: Ovariectomized rat Study 2: calcilytic plus/minus 17β estradiol, histology and histomorphometry of proximal tibia; type: in vivo; settings: Study 2, proximal tibia, static histomorphometry, vs ovx group
Experimental: Animals were prepared and monitored as described above. […] Dosing continued for 5 weeks at which point the animals were sacrificed and the tibiae were collected for histological analysis. Bone samples were dehydrated through increasing concentrations of ethanol, defatted in acetone and embedded in methyl methacrylate (Polysciences, Inc., Warrington, Pa.). Longitudinal undecalcified sections (5 μm) sections of the proximal tibial were cut on a Leica microtome (S[…]); the tissue blocks had been prestained with Villanueva stain. Histomorphometric analysis was carried out using an Osteomeasure system (OsteoMetrics Incorpotated), without knowledge of group allocation. Measurements within the tibial metaphysis were restricted to a mean tissue area of approximately 8 mm^2 beginning 1 mm below the growth plate. Primary measurements included area of bone and marrow (mm^2), bone area (mm^2), perimeter of bone (mm), single and double-labelled perimeter (sL.Pm, dL.Pm, m), osteoid perimeter (O.Pm, m) and eroded perimeter (Er.P, m). […] Statistical analysis was assessed by a two sided t-test.

[1] = Ovariectomized rat Study 1: circulating compound levels (LC/MS/MS); type: in vivo; settings: Study 1, plasma, after oral administration
Source text: Seven month old virgin Sprague Dawley female rats were subjected to bilateral ovariectomy or sham surgery and the animals then held for a period of three months to allow the development of osteopenia. At that time a single sham group (n=10) and three groups of ovariectomized (ovx) animals (n=10-14) were assigned. The ovx groups were selected such that there was no significant difference in bone mineral density (“BMD”) of the lumbar spine, proximal tibia or distal femur between groups. Groups consisted of sham and ovx controls treated with dose vehicle (20% aqueous encapsin) and ovx groups treated with either N-[(2R-Hydroxy-3-[(3-chloro-2-cyano)phenoxy-propyl]-1,1-dimethyl-2-(2-naphthyl)ethyl amine hydrochloride (“calcilytic administered”) ([…] body weight daily p.o.) or rat PTH 1-34 (5 ug/kg body weight daily s.c.).
Timed plasma samples were collected relative to administration of compound or PTH. PTH 1-34 was measured by RIA (Nichols Institute Diagnostics, San Juan Capistrano, Calif.). The concentrations of compound in the plasma were quantified by LC/MS/MS (limit of detection 10 ng/ml).

[2] = test system: human TF274 osteoblastic cells; test: Osteoblast cAMP production, TF274 cells; type: cell-based; settings: compound 0.1, 1 and 10 uM
Experimental: cAMP accumulation was measured in both human TF274 osteoblastic cells (derived by immortalization of human bone marrow stromal cells) see James, supra, and primary human osteoblasts derived from explants of trabecular bone as described in Beresford, Biochim. Biophys. Acta, Vol. 801, pp. 58-65 ([…]). cAMP levels in cell samples were measured using a non-radioactive protocol (Amersham kit). Alkaline phosphatase activity was determined using the standard colorimetric method as described previously in Gowen, Arth. Rheum., Vol. 31, pp. 1500-1507 (1988). N-[(2R-Hydroxy-3-[(3-chloro-2-cyano)phenoxy-propyl]-1,1-dimethyl-2-(2-naphthyl)ethyl amine hydrochloride was tested at 0.1, 1 and 10 uM. PTH 40 ng/ml was used as a positive control.

Ca^2+ receptor = molecular target: T1, Ca^2+ receptor (Homo sapiens, UniProt P41180); test: Ca2+ receptor-mediated Ca2+ mobilization; type: cell-based
T1 sequence (P41180 20-1078): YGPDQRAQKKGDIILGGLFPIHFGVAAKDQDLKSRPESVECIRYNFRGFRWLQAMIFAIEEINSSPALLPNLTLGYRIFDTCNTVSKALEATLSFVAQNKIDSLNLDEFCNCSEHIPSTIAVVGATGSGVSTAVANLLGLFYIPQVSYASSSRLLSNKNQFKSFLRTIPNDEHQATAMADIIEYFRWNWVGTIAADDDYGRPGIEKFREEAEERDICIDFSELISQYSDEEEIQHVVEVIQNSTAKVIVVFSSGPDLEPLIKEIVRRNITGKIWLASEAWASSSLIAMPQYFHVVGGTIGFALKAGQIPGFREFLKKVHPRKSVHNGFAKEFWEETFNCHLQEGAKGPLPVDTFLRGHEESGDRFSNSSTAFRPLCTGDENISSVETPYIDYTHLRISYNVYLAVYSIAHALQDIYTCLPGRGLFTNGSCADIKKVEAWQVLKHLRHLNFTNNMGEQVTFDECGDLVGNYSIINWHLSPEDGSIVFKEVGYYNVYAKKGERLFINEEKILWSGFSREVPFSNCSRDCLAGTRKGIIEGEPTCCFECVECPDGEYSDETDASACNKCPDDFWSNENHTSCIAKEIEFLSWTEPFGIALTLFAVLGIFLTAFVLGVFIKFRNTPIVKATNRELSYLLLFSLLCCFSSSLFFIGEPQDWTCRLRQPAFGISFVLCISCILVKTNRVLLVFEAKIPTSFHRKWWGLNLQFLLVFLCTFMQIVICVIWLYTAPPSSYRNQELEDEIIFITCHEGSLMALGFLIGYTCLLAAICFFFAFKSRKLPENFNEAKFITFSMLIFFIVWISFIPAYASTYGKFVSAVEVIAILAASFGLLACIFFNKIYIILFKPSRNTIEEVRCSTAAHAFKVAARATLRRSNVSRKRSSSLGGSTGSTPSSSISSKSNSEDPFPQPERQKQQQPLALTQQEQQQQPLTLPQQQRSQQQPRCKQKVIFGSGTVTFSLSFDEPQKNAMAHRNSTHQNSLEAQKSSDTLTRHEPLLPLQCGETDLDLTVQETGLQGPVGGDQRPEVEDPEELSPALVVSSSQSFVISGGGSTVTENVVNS

SMILES: CC(C)(Cc1ccc2ccccc2c1)NC[C@@H](O)COc1cccc(Cl)c1C#N [N-[(2R-Hydroxy-3-[(3-chloro-2-cyano)phenoxy-propyl]-1,1-dimethyl-2-(2-naphthyl)ethylamine hydrochloride]
- % trabecular area (% Tb.Ar.) / ovx-induced bone loss (osteopenic ovx rats): no effect
- sustained exposure to compound (circulating levels) [1]: elevated for up to eight hours
- PTH-induced cAMP levels ([2]; PTH 40 ng/ml): no effect
- cAMP levels (basal) ([2]; PTH 40 ng/ml positive control): no effect
- fold by which fetal rat long bone IC50 exceeds IC50 for Ca^2+ receptor-mediated Ca^2+ mobilization (Ca^2+ receptor): approximately 300 fold
